Laboratory results published in PubChem BioAssay (NCI).
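Dose response: 5 concentrations. Exposure: 48 h. Format: 96-well plates. Endpoint: linear interpolation; highest concentration if not reached. GI50 marks 50% less growth. TGI: concentration producing complete growth inhibition.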

Columns and labels:
Assay in all cases: growth of human tumour cells (NCI), 48 h
786-0 renal = system: 786-0 renal
A498 renal = system: A498 renal
A549 NSCLC = system: A549 NSCLC
ACHN renal = system: ACHN renal
BT-549 breast = system: BT-549 breast
CAKI-1 renal = system: CAKI-1 renal
CCRF-CEM leukemia = system: CCRF-CEM leukemia
COLO 205 colon = system: COLO 205 colon
DU-145 prostate = system: DU-145 prostate
EKVX NSCLC = system: EKVX NSCLC
HCC-2998 colon = system: HCC-2998 colon
HCT-116 colon = system: HCT-116 colon
HCT-15 colon = system: HCT-15 colon
HL-60(TB) leukemia = system: HL-60(TB) leukemia
HOP-62 NSCLC = system: HOP-62 NSCLC
HOP-92 NSCLC = system: HOP-92 NSCLC
HS 578T breast = system: HS 578T breast
HT29 colon = system: HT29 colon
IGROV1 ovarian = system: IGROV1 ovarian
K-562 leukemia = system: K-562 leukemia
KM12 colon = system: KM12 colon
LOX IMVI melanoma = system: LOX IMVI melanoma
M14 melanoma = system: M14 melanoma
MALME-3M melanoma = system: MALME-3M melanoma
MCF7 breast = system: MCF7 breast
MDA-MB-231 breast = system: MDA-MB-231 breast
MDA-MB-435 = system: MDA-MB-435
MOLT-4 leukemia = system: MOLT-4 leukemia
NCI-H226 lung = system: NCI-H226 lung
NCI-H23 lung = system: NCI-H23 lung
NCI-H460 lung = system: NCI-H460 lung
NCI-H522 lung = system: NCI-H522 lung
NCI/ADR-RES ovarian = system: NCI/ADR-RES ovarian
OVCAR-3 ovarian = system: OVCAR-3 ovarian
OVCAR-4 ovarian = system: OVCAR-4 ovarian
OVCAR-5 ovarian = system: OVCAR-5 ovarian
OVCAR-8 ovarian = system: OVCAR-8 ovarian
PC-3 prostate = system: PC-3 prostate
RPMI-8226 leukemia = system: RPMI-8226 leukemia
RXF 393 renal = system: RXF 393 renal
SF-268 CNS = system: SF-268 CNS
SF-295 CNS = system: SF-295 CNS
SF-539 CNS = system: SF-539 CNS
SK-MEL-2 melanoma = system: SK-MEL-2 melanoma
SK-MEL-28 melanoma = system: SK-MEL-28 melanoma
SK-MEL-5 melanoma = system: SK-MEL-5 melanoma
SK-OV-3 ovarian = system: SK-OV-3 ovarian
SN12C renal = system: SN12C renal
SNB-19 CNS = system: SNB-19 CNS
SNB-75 CNS = system: SNB-75 CNS
SR leukemia = system: SR leukemia
SW-620 colon = system: SW-620 colon
T-47D breast = system: T-47D breast
TK-10 renal = system: TK-10 renal
U251 CNS = system: U251 CNS
UACC-257 melanoma = system: UACC-257 melanoma
UACC-62 melanoma = system: UACC-62 melanoma
UO-31 renal = system: UO-31 renal

Structure (SMILES): COc1cc(NCCCCCN=C(N)N)c2ncccc2c1
- GI50 (786-0 renal): 23.8 µM
- TGI (786-0 renal): > 100 µM
- GI50 (A498 renal): 42.5 µM
- TGI (A498 renal): > 100 µM
- GI50 (A549 NSCLC): 30 µM
- TGI (A549 NSCLC): > 100 µM
- GI50 (ACHN renal): 41.5 µM
- TGI (ACHN renal): > 100 µM
- GI50 (BT-549 breast): 5.38 µM
- TGI (BT-549 breast): 18.5 µM
- GI50 (CAKI-1 renal): > 100 µM
- TGI (CAKI-1 renal): > 100 µM
- GI50 (CCRF-CEM leukemia): 5.1 µM
- TGI (CCRF-CEM leukemia): > 74.3 µM
- GI50 (COLO 205 colon): 2.92 µM
- TGI (COLO 205 colon): 9.3 µM
- GI50 (DU-145 prostate): 35.1 µM
- TGI (DU-145 prostate): > 100 µM
- GI50 (EKVX NSCLC): 4.79 µM
- TGI (EKVX NSCLC): > 50.5 µM
- GI50 (HCC-2998 colon): 3.97 µM
- TGI (HCC-2998 colon): > 33.9 µM
- GI50 (HCT-116 colon): 2.74 µM
- TGI (HCT-116 colon): > 63.5 µM
- GI50 (HCT-15 colon): 43.9 µM
- TGI (HCT-15 colon): > 100 µM
- GI50 (HL-60(TB) leukemia): 3.46 µM
- TGI (HL-60(TB) leukemia): 15.2 µM
- GI50 (HOP-62 NSCLC): 10.1 µM
- TGI (HOP-62 NSCLC): > 93.4 µM
- GI50 (HOP-92 NSCLC): 2.69 µM
- TGI (HOP-92 NSCLC): 40.4 µM
- GI50 (HS 578T breast): 19 µM
- TGI (HS 578T breast): > 65.4 µM
- GI50 (HT29 colon): 5.97 µM
- TGI (HT29 colon): > 80.7 µM
- GI50 (IGROV1 ovarian): 1.03 µM
- TGI (IGROV1 ovarian): > 36 µM
- GI50 (K-562 leukemia): 5.16 µM
- TGI (K-562 leukemia): > 88.2 µM
- GI50 (KM12 colon): 2.04 µM
- TGI (KM12 colon): 14.5 µM
- GI50 (LOX IMVI melanoma): 8.21 µM
- TGI (LOX IMVI melanoma): > 56.1 µM
- GI50 (M14 melanoma): 17.7 µM
- TGI (M14 melanoma): 54.1 µM
- GI50 (MALME-3M melanoma): 1.97 µM
- TGI (MALME-3M melanoma): 8.92 µM
- GI50 (MCF7 breast): 0.179 µM
- TGI (MCF7 breast): 1.11 µM
- GI50 (MDA-MB-231 breast): 2.65 µM
- TGI (MDA-MB-231 breast): 12.3 µM
- GI50 (MDA-MB-435): 16.7 µM
- TGI (MDA-MB-435): 42.3 µM
- GI50 (MOLT-4 leukemia): 4.53 µM
- TGI (MOLT-4 leukemia): > 74.4 µM
- GI50 (NCI-H226 lung): 16.8 µM
- TGI (NCI-H226 lung): > 100 µM
- GI50 (NCI-H23 lung): 1.74 µM
- TGI (NCI-H23 lung): 18.9 µM
- GI50 (NCI-H460 lung): 7.09 µM
- TGI (NCI-H460 lung): > 57.5 µM
- GI50 (NCI-H522 lung): 0.369 µM
- TGI (NCI-H522 lung): 4.85 µM
- GI50 (NCI/ADR-RES ovarian): > 100 µM
- TGI (NCI/ADR-RES ovarian): > 100 µM
- GI50 (OVCAR-3 ovarian): 0.468 µM
- TGI (OVCAR-3 ovarian): 9.03 µM
- GI50 (OVCAR-4 ovarian): 0.043 µM
- TGI (OVCAR-4 ovarian): 0.953 µM
- GI50 (OVCAR-5 ovarian): 5.73 µM
- TGI (OVCAR-5 ovarian): 30 µM
- GI50 (OVCAR-8 ovarian): 4.24 µM
- TGI (OVCAR-8 ovarian): > 71.7 µM
- GI50 (PC-3 prostate): 3.47 µM
- TGI (PC-3 prostate): > 49.6 µM
- GI50 (RPMI-8226 leukemia): 5.45 µM
- TGI (RPMI-8226 leukemia): 33.5 µM
- GI50 (RXF 393 renal): 24.9 µM
- TGI (RXF 393 renal): > 94.7 µM
- GI50 (SF-268 CNS): 3.59 µM
- TGI (SF-268 CNS): 22.6 µM
- GI50 (SF-295 CNS): 17.1 µM
- TGI (SF-295 CNS): 97.8 µM
- GI50 (SF-539 CNS): 4.68 µM
- TGI (SF-539 CNS): 19.4 µM
- GI50 (SK-MEL-2 melanoma): 3.31 µM
- TGI (SK-MEL-2 melanoma): 16.1 µM
- GI50 (SK-MEL-28 melanoma): 14.6 µM
- TGI (SK-MEL-28 melanoma): 38.6 µM
- GI50 (SK-MEL-5 melanoma): 2.31 µM
- TGI (SK-MEL-5 melanoma): 6.86 µM
- GI50 (SK-OV-3 ovarian): 60 µM
- TGI (SK-OV-3 ovarian): > 100 µM
- GI50 (SN12C renal): 3.57 µM
- TGI (SN12C renal): 13.7 µM
- GI50 (SNB-19 CNS): 5.62 µM
- TGI (SNB-19 CNS): 30.3 µM
- GI50 (SNB-75 CNS): 3.25 µM
- TGI (SNB-75 CNS): 16.6 µM
- GI50 (SR leukemia): 6.28 µM
- TGI (SR leukemia): 40.6 µM
- GI50 (SW-620 colon): 4.97 µM
- TGI (SW-620 colon): > 100 µM
- GI50 (T-47D breast): 1.07 µM
- TGI (T-47D breast): 6.98 µM
- GI50 (TK-10 renal): 3.43 µM
- TGI (TK-10 renal): 17.1 µM
- GI50 (U251 CNS): 3.23 µM
- TGI (U251 CNS): 25.8 µM
- GI50 (UACC-257 melanoma): 4.38 µM
- TGI (UACC-257 melanoma): 16.7 µM
- GI50 (UACC-62 melanoma): 7.2 µM
- TGI (UACC-62 melanoma): 24 µM
- GI50 (UO-31 renal): > 100 µM
- TGI (UO-31 renal): > 100 µM
